Measured values published in patent US9296760B2, “Antibacterial compounds” (JANSSEN SCIENCES IRELAND UC, priority 2012, dated 2016).
In brackets after ≈: the same amount, converted by molar mass.

Experiments:
[1] = biological target: T1, S. aureus ATCC 29213 FabI (Staphylococcus aureus, UniProt Q6GI75); experiment: Staphylococcus aureus FabI enzyme inhibition assay; format: biochemical; settings: NADH consumption, 30 minutes, read-out: FabI (300.235) IC50 (converted)
T1 sequence (Q6GI75 1-256): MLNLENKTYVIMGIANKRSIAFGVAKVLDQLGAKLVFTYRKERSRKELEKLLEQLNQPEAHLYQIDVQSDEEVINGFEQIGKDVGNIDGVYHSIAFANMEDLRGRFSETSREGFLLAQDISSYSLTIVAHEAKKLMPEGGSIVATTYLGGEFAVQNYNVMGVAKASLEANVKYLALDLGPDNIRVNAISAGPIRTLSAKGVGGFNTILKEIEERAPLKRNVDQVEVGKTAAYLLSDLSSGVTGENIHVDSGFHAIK
Procedure: Y.1 FabI Enzyme Inhibition: Staphylococcus aureus FabI Enzyme Inhibition Assay
FabI enzyme inhibition assays were carried out in half-area, 384-well microtitre plates. […] The reaction mixtures were incubated for 30 minutes at room temperature and the reaction was stopped by adding 200 mM Tris buffer (pH 9.0) to create a pH-shift. The consumption of NADH was monitored by measuring the change in absorbance at […]. By comparing sample readings to those of negative (absence of compound) and positive (absence of enzyme) controls, the percent inhibition of enzymatic activity of the compounds was determined A best-fit curve is fitted by a minimum of squares method. From this an IC50-value (expressed in μg/ml), resulting in 50% inhibition of enzymatic activity, was obtained.

Cytotoxicity MTT assay = format: cell-based, Human; settings: human, HelaM cells, read-out: HELAM (222.125) CC50
Procedure: Cytotoxicity of the compounds was evaluated using the MTT assay. Human HelaM cells grown in 96-well plates were exposed to serial dilutions of the tested compounds (final volume of 0.2 ml) and incubated for 72 hours at 37° C. and 5% CO2 Inhibitors are typically varied over the range of 25 to 0.8 μM. The final DMSO concentration in the assay is 0.5%. MTT (3-(4,5-Dimethylthiazol-2-yl)-2,5-diphenyltetrazolium bromide, a tetrazole) was added and reduced to purple formazan only in living cells. Solubilization of the formazan crystals was achieved by adding 100 μl 2-propanol. Cell viability was determined by measuring the absorbance of the reduced formazan, giving a purple color, at 540 nm and 690 nm. The absorbance measured at 690 nm was automatically subtracted from the absorbance at 540 nm, to eliminate the effects of non-specific absorption. The percent cytotoxicity achieved by the compounds was calculated according to standard methods. Cytotoxicity is reported as CC50, the concentration that causes a 50% reduction in cell viability.
The results are depicted in the table(s) below (HELAM).

[2] = test system: Staphylococcus aureus ATCC 29213; experiment: Antibacterial susceptibility testing, IC90 determination (broth microdilution, resazurin); format: cell-based; settings: Staphylococcus aureus, ATCC29213, S. aureus ATCC 29213; 90% inhibitory concentration for bacterial growth; read-out: STA (361.159) IC90
Procedure: Y.2 In Vitro Method for Testing Compounds for Antibacterial Activity Against Various Bacterial Strains
Preparation of Bacterial Suspensions for Susceptibility Testing
The following bacteria were used: Staphylococcus aureus ATCC 29213, methicillin-resistant Staphylococcus aureus (MRSA) ATCC 700788 and Escherichia coli ATCC 35218. The bacteria used in this study were grown overnight in flasks containing 100 ml Mueller-Hinton broth (Difco cat. nr. 0757-17) in sterile de-ionized water, with shaking, at 37° C. Stocks were store at −70° C. until use.
Bacteria were incubated on a tryptic soy agar plate containing 5% sheep blood (Becton Dickinson cat. nr. 254053) for 18-24 hours at 35° C. in aerobic conditions (first passage). For the second passage, fresh Mueller-Hinton broth is inoculated with 5-10 colonies and grown overnight at 35° C. until turbidity (reaching log-phase) in aerobic conditions is reached. The bacterial suspension is then adjusted to 0.5 McFarland density and further diluted 1:100 in Mueller Hinton broth medium. This is used as inoculum.
The result(s) are depicted the table below (for STA ATCC 29213).
Antibacterial Susceptibility Testing: IC90 Determination
(§1) MIC assays were performed by the broth microdilution method in a 96-well format (flat-bottom microtitre plates) with a final volume of 0.1 ml Mueller Hinton broth containing two-fold serial dilutions of compounds and inoculated with 5×10^5 CFU/ml of bacteria (standard inoculum size according to CLSI guidelines). Inhibitors are typically varied over the range of 63 to 0.49 μM. The final DMSO concentration in the assay was 1.25% (maximum tolerable DMSO concentration=6%). In the assays where the effect of human serum on the activity of the compounds against S. aureus was tested, human serum was added at a final concentration of 10%. The plates were incubated at 35° C. for 16-20 hours. At the end of incubation the bacterial growth was quantified fluorometrically. For this, resazurin was added to all wells and the plates were re-incubated. The incubation time is dependent on the type of bacteria. A change in color from blue to pink indicated the growth of bacteria. The fluorescence was read in computer-controlled fluorometer (Fluoroskan Ascent FL, Labsystems) at an excitation wavelength 540 nm and an emission wavelength of 590 nm. The % growth inhibition achieved by the compounds was calculated according to standard methods. The IC90 (expressed in μg/ml) was defined as the 90% inhibitory concentration for bacterial growth. A panel of reference compounds were simultaneously tested for QC approval.

S. aureus = experiment: Antibacterial susceptibility testing, IC90 determination with 10% human serum; format: cell-based, Staphylococcus aureus; settings: Staphylococcus aureus, S. aureus with human serum at final concentration of 10%; read-out: STA + 10% HS (361.169) IC90
Procedure: as §1, with “Antibacterial Susceptibility Testing: IC90 Determination MIC” for “MIC”, “approval. The results are depicted in the table(s) below (STA+10% HS).” for “approval.”

SMILES	IC50 [1]	CC50 at 72 h (Cytotoxicity MTT assay)	IC90 [2]	melting point	IC90 (S. aureus)
COc1ccc(F)cc1C1=CCCN(C(=O)/C=C/c2cnc3c(c2)CNCC(=O)N3)CC1 [compound 31]	~0.933 µM	> 11 µg/mL	< 0.21 µg/mL	192 °C	0.26 µg/mL
O=C1CNCc2cc(/C=C/C(=O)N3CCC=C(c4ccccc4)CC3)cnc2N1 [compound 34]	0.901 µM	> 9.76 µg/mL	0.37 µg/mL (≈ 0.952 µM)	203.18 °C	0.38 µg/mL
CC(=O)Nc1ccc(/C=C/C(=O)N2CC=C(c3ccccc3)CCC2)cn1 [compound 12]	0.609 µM	> 9.08 µg/mL	1.3 µg/mL (≈ 3.6 µM)	188 °C	1.9 µg/mL
COc1ccc(F)cc1C1=CCCN(C(=O)/C=C/c2cnc3c(c2)COCC(=O)N3)CC1 [compound 32]	1.26 µM	10.1 µg/mL (≈ 23.2 µM)	0.22 µg/mL (≈ 0.503 µM)	234 °C	0.41 µg/mL
O=C1Nc2ncc(/C=C/C(=O)N3CC=C(c4ccccc4)CCC3)cc2CN2CCSCC12 (centres unmarked) [compound 51]	1.11 µM	5.35 µg/mL (≈ 11.6 µM)	0.67 µg/mL (≈ 1.45 µM)	224 °C	1.6 µg/mL
O=C1Nc2ncc(/C=C/C(=O)N3CCC=C(c4ccccc4)CC3)cc2CN2CCSCC12 (centres unmarked) [Compound K1]				224 °C	
O=C(Nc1ccc(/C=C/C(=O)N2CCC=C(c3ccccc3)CC2)cn1)C1CCCCC1 [compound 29]	3.1 µM	3.15 µg/mL (≈ 7.33 µM)	> 27.1 µg/mL		> 27.1 µg/mL
Cn1cc(C(=O)Nc2ccc(/C=C/C(=O)N3CCC=C(c4ccccc4)CC3)cn2)cn1 [compound 4]	1.4 µM	3.94 µg/mL (≈ 9.22 µM)	0.63 µg/mL (≈ 1.47 µM)		1.66 µg/mL
Nc1ccc(/C=C/C(=O)N2CCC=C(c3ccccc3)CC2)cn1 [compound 23]	3.01 µM	5.3 µg/mL (≈ 16.6 µM)	13.3 µg/mL (≈ 41.7 µM)		> 20.1 µg/mL
CC1(C(=O)Nc2ccc(/C=C/C(=O)N3CCC=C(c4ccccc4)CC3)cn2)CC1 [compound 15]	~1.07 µM	6.59 µg/mL (≈ 16.4 µM)	2.84 µg/mL (≈ 7.07 µM)		11.8 µg/mL
O=CNc1ccc(/C=C/C(=O)N2CCC=C(c3ccccc3)CC2)cn1 [compound 7]	0.662 µM	7.18 µg/mL (≈ 20.7 µM)	0.78 µg/mL (≈ 2.25 µM)		1.25 µg/mL
CS(=O)(=O)N1CC(=O)Nc2ncc(/C=C/C(=O)N3CCC=C(c4ccccc4)CC3)cc2C1 [compound 37]	0.686 µM	2.04 µg/mL (≈ 4.37 µM)	0.48 µg/mL (≈ 1.03 µM)		0.66 µg/mL
COc1ccc(F)cc1C1=CCCN(C(=O)/C=C/c2cnc3c(c2)CN2CCN(C(C)=O)CC2C(=O)N3)CC1 (centres unmarked) [compound 48]	1.11 µM	> 13.4 µg/mL	< 0.26 µg/mL		0.46 µg/mL
O=C(Nc1ccc(/C=C/C(=O)N2CCC=C(c3ccccc3)CC2)cn1)c1cnccn1 [compound 28]	1.2 µM	> 10.7 µg/mL	> 26.8 µg/mL		26.2 µg/mL
O=C(Nc1ccc(/C=C/C(=O)N2CCC=C(c3ccccc3)CC2)cn1)c1ccccn1 [compound 27]	2.1 µM	3.83 µg/mL (≈ 9.02 µM)	> 26.8 µg/mL		> 26.8 µg/mL
CC(C)Nc1ccc(/C=C/C(=O)N2CCC=C(c3ccccc3)CC2)cn1 [compound 24]	5.26 µM	> 9.08 µg/mL	21 µg/mL (≈ 58.2 µM)		> 22.8 µg/mL
O=C(Nc1ccc(/C=C/C(=O)N2CCC=C(c3ccccc3)CC2)cn1)C1CCCO1 (centres unmarked) [compound 30]	~1.76 µM	11 µg/mL (≈ 26.4 µM)	27.7 µg/mL (≈ 66.3 µM)		33.3 µg/mL
CC(=O)N1CC(=O)Nc2ncc(/C=C/C(=O)N3CCC=C(c4ccccc4)CC3)cc2C1 [compound 39]	0.743 µM	> 10.8 µg/mL	0.51 µg/mL (≈ 1.18 µM)		0.75 µg/mL
CC(C)(C)C(=O)Nc1ccc(/C=C/C(=O)N2CCC=C(c3ccccc3)CC2)cn1 [compound 25]	2.03 µM	6.32 µg/mL (≈ 15.7 µM)	> 25.5 µg/mL		> 25.5 µg/mL
CC(C)CC(=O)Nc1ccc(/C=C/C(=O)N2CCC=C(c3ccccc3)CC2)cn1 [compound 26]	1.39 µM	3.77 µg/mL (≈ 9.34 µM)	> 25.5 µg/mL		> 25.5 µg/mL
O=C1CN(c2ccccc2)Cc2cc(/C=C/C(=O)N3CCC=C(c4ccccc4)CC3)cnc2N1 [compound 42]	~1.51 µM	11.7 µg/mL (≈ 25.1 µM)	0.77 µg/mL (≈ 1.66 µM)		3.33 µg/mL
